Measured values published in ChEMBL document CHEMBL4387773, “Identification of potent, selective and orally bioavailable phenyl ((R)-3-phenylpyrrolidin-3-yl)sulfone analogues as RORγt inverse agonists” (Bioorg Med Chem Lett, 2019).

System: not listed separately
Assay: Stability in human liver microsomes assessed as parent compound remaining after 10 mins
Format: ADME, Microsome
Conditions: liver microsomes, read-out: Stability

| remaining at 10 min [%] | SMILES |
| --- | --- |
| 100 | O=C(O)[C@H]1[C@@H]2C[C@@H](C(=O)N3CC[C@](c4ccc(C(F)(C(F)(F)F)C(F)(F)F)cc4)(S(=O)(=O)c4ccc(F)cc4)C3)C[C@@H]21 |
| 97 | C[C@]1(C(=O)O)CC[C@H](C(=O)N2CC[C@](c3ccc(C(F)(C(F)(F)F)C(F)(F)F)cc3)(S(=O)(=O)c3ccc(F)cc3)C2)CC1 |
| 100 | O=C(N1CC[C@](c2ccc(C(F)(C(F)(F)F)C(F)(F)F)cc2)(S(=O)(=O)c2ccc(F)cc2)C1)C1(O)CCS(=O)(=O)CC1 |
| 86 | O=C([C@H]1CC[C@H](O)CC1)N1CC[C@](c2ccc(C(F)(C(F)(F)F)C(F)(F)F)cc2)(S(=O)(=O)c2ccc(F)cc2)C1 |

Molecular target: T1, Nuclear receptor subfamily 1 group I member 2 (Homo sapiens, UniProt O75469)
T1 sequence (O75469 whole entry): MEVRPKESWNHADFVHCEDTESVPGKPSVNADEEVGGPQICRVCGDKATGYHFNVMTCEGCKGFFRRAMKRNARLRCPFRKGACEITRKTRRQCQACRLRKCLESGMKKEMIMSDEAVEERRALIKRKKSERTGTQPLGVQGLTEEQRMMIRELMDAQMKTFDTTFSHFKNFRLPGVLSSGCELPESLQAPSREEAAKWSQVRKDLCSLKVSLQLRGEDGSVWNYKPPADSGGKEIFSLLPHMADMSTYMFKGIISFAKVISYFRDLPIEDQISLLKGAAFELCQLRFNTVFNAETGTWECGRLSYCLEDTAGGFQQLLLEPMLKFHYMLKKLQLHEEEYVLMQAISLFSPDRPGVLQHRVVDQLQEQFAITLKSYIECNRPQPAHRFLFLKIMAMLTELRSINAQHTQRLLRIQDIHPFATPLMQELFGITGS
Assay: Transactivation of PXR (unknown origin) expressed in human HepG2 cells
Format: cell-based
Conditions: not given

| EC50 [µM] | SMILES |
| --- | --- |
| > 50 | O=C(O)[C@H]1[C@@H]2C[C@@H](C(=O)N3CC[C@](c4ccc(C(F)(C(F)(F)F)C(F)(F)F)cc4)(S(=O)(=O)c4ccc(F)cc4)C3)C[C@@H]21 |
| > 50 | C[C@]1(C(=O)O)CC[C@H](C(=O)N2CC[C@](c3ccc(C(F)(C(F)(F)F)C(F)(F)F)cc3)(S(=O)(=O)c3ccc(F)cc3)C2)CC1 |
| > 50 | O=C(N1CC[C@](c2ccc(C(F)(C(F)(F)F)C(F)(F)F)cc2)(S(=O)(=O)c2ccc(F)cc2)C1)C1(O)CCS(=O)(=O)CC1 |
| > 50 | O=C([C@H]1CC[C@H](O)CC1)N1CC[C@](c2ccc(C(F)(C(F)(F)F)C(F)(F)F)cc2)(S(=O)(=O)c2ccc(F)cc2)C1 |

Molecular target: T2, PXR (Homo sapiens, UniProt O75469)
T2 sequence (O75469 whole entry): T1 sequence (O75469 whole entry)
Assay: Transactivation of PXR (unknown origin) expressed in human HepG2 cells assessed as maximum receptor activation response relative to control
Format: cell-based
Conditions: human HepG2 cells that express PXR, read-out: %max

| Emax [%] | SMILES |
| --- | --- |
| 15 | O=C(O)[C@H]1[C@@H]2C[C@@H](C(=O)N3CC[C@](c4ccc(C(F)(C(F)(F)F)C(F)(F)F)cc4)(S(=O)(=O)c4ccc(F)cc4)C3)C[C@@H]21 |
| 18 | C[C@]1(C(=O)O)CC[C@H](C(=O)N2CC[C@](c3ccc(C(F)(C(F)(F)F)C(F)(F)F)cc3)(S(=O)(=O)c3ccc(F)cc3)C2)CC1 |
| 6 | O=C(N1CC[C@](c2ccc(C(F)(C(F)(F)F)C(F)(F)F)cc2)(S(=O)(=O)c2ccc(F)cc2)C1)C1(O)CCS(=O)(=O)CC1 |
| 13 | O=C([C@H]1CC[C@H](O)CC1)N1CC[C@](c2ccc(C(F)(C(F)(F)F)C(F)(F)F)cc2)(S(=O)(=O)c2ccc(F)cc2)C1 |

System: not listed separately
Assay: Stability in mouse liver microsomes assessed as parent compound remaining after 10 mins
Format: ADME, Microsome
Conditions: liver microsomes, read-out: Stability

| remaining at 10 min [%] | SMILES |
| --- | --- |
| 93 | C[C@]1(C(=O)O)CC[C@H](C(=O)N2CC[C@](c3ccc(C(F)(C(F)(F)F)C(F)(F)F)cc3)(S(=O)(=O)c3ccc(F)cc3)C2)CC1 |
| 90 | O=C(N1CC[C@](c2ccc(C(F)(C(F)(F)F)C(F)(F)F)cc2)(S(=O)(=O)c2ccc(F)cc2)C1)C1(O)CCS(=O)(=O)CC1 |
| 58 | O=C([C@H]1CC[C@H](O)CC1)N1CC[C@](c2ccc(C(F)(C(F)(F)F)C(F)(F)F)cc2)(S(=O)(=O)c2ccc(F)cc2)C1 |

Molecular target: T3, Nuclear receptor ROR-alpha (Homo sapiens, UniProt P35398)
T3 sequence (P35398 whole entry): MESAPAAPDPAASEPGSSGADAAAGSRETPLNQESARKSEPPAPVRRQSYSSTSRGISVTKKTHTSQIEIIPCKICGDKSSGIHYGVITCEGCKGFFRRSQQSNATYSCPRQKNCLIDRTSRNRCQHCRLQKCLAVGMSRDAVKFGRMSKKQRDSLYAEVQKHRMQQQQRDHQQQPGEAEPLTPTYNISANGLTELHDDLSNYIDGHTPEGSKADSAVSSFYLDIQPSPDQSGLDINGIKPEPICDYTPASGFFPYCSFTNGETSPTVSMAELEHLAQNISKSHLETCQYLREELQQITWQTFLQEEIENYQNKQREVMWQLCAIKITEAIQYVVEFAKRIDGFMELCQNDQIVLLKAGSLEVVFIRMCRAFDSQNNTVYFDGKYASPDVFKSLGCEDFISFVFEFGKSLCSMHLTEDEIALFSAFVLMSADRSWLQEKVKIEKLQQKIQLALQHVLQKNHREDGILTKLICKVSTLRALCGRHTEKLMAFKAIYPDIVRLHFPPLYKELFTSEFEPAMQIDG
Assay: Inverse agonist activity at human Gal4-fused RORalpha LBD (272 to 556 residues) expressed in human Jurkat cells measured after 18 hrs by steady-glo luciferase reporter gene assay
Format: cell-based
Conditions: not given

| EC50 [µM] | SMILES |
| --- | --- |
| > 40 | O=C(O)[C@H]1[C@@H]2C[C@@H](C(=O)N3CC[C@](c4ccc(C(F)(C(F)(F)F)C(F)(F)F)cc4)(S(=O)(=O)c4ccc(F)cc4)C3)C[C@@H]21 |
| > 40 | C[C@]1(C(=O)O)CC[C@H](C(=O)N2CC[C@](c3ccc(C(F)(C(F)(F)F)C(F)(F)F)cc3)(S(=O)(=O)c3ccc(F)cc3)C2)CC1 |
| > 40 | O=C(N1CC[C@](c2ccc(C(F)(C(F)(F)F)C(F)(F)F)cc2)(S(=O)(=O)c2ccc(F)cc2)C1)C1(O)CCS(=O)(=O)CC1 |
| > 40 | O=C([C@H]1CC[C@H](O)CC1)N1CC[C@](c2ccc(C(F)(C(F)(F)F)C(F)(F)F)cc2)(S(=O)(=O)c2ccc(F)cc2)C1 |

Molecular target: T4, Nuclear receptor ROR-beta (Homo sapiens, UniProt Q92753)
T4 sequence (Q92753 whole entry): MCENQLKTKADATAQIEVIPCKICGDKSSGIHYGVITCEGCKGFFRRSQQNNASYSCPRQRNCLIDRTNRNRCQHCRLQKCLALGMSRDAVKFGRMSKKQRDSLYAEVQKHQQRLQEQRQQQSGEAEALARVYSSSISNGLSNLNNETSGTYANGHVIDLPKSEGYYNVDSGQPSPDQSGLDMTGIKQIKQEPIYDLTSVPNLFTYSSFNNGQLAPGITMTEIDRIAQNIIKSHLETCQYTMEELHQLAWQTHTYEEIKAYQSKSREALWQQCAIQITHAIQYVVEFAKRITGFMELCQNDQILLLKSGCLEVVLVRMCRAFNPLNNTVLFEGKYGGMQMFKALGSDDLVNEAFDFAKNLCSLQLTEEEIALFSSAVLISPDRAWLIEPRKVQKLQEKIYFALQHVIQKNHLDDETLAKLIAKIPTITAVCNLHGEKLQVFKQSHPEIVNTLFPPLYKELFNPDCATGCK
Assay: Inverse agonist activity at human Gal4-fused RORbeta LBD (200 to 559 residues) expressed in human Jurkat cells measured after 18 hrs by steady-glo luciferase reporter gene assay
Format: cell-based
Conditions: not given

| EC50 [µM] | SMILES |
| --- | --- |
| > 40 | O=C(O)[C@H]1[C@@H]2C[C@@H](C(=O)N3CC[C@](c4ccc(C(F)(C(F)(F)F)C(F)(F)F)cc4)(S(=O)(=O)c4ccc(F)cc4)C3)C[C@@H]21 |
| > 40 | C[C@]1(C(=O)O)CC[C@H](C(=O)N2CC[C@](c3ccc(C(F)(C(F)(F)F)C(F)(F)F)cc3)(S(=O)(=O)c3ccc(F)cc3)C2)CC1 |
| > 40 | O=C(N1CC[C@](c2ccc(C(F)(C(F)(F)F)C(F)(F)F)cc2)(S(=O)(=O)c2ccc(F)cc2)C1)C1(O)CCS(=O)(=O)CC1 |
| > 40 | O=C([C@H]1CC[C@H](O)CC1)N1CC[C@](c2ccc(C(F)(C(F)(F)F)C(F)(F)F)cc2)(S(=O)(=O)c2ccc(F)cc2)C1 |

Molecular target: T5, Oxysterols receptor LXR-alpha (Homo sapiens, UniProt Q13133)
T5 sequence (Q13133 whole entry): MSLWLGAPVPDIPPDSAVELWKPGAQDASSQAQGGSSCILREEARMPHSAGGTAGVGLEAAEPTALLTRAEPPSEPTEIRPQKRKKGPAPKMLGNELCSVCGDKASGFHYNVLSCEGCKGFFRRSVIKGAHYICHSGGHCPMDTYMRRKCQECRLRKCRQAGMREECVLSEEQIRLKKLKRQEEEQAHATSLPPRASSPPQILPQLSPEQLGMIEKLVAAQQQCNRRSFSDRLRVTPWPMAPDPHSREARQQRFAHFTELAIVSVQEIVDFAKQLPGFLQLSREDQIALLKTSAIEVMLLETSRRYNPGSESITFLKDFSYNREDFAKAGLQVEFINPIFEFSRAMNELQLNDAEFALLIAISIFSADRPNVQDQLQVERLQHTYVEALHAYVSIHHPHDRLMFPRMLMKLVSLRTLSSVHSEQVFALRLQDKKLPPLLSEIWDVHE
Assay: Transactivation of human GAL4-fused LXRalpha expressed in African green monkey CV1 cells
Format: cell-based
Conditions: not given

| EC50 [µM] | SMILES |
| --- | --- |
| > 7.5 | O=C(O)[C@H]1[C@@H]2C[C@@H](C(=O)N3CC[C@](c4ccc(C(F)(C(F)(F)F)C(F)(F)F)cc4)(S(=O)(=O)c4ccc(F)cc4)C3)C[C@@H]21 |
| > 7.5 | C[C@]1(C(=O)O)CC[C@H](C(=O)N2CC[C@](c3ccc(C(F)(C(F)(F)F)C(F)(F)F)cc3)(S(=O)(=O)c3ccc(F)cc3)C2)CC1 |
| > 7.5 | O=C(N1CC[C@](c2ccc(C(F)(C(F)(F)F)C(F)(F)F)cc2)(S(=O)(=O)c2ccc(F)cc2)C1)C1(O)CCS(=O)(=O)CC1 |
| > 7.5 | O=C([C@H]1CC[C@H](O)CC1)N1CC[C@](c2ccc(C(F)(C(F)(F)F)C(F)(F)F)cc2)(S(=O)(=O)c2ccc(F)cc2)C1 |

Molecular target: T6, Oxysterols receptor LXR-beta (Homo sapiens, UniProt P55055)
T6 sequence (P55055 whole entry): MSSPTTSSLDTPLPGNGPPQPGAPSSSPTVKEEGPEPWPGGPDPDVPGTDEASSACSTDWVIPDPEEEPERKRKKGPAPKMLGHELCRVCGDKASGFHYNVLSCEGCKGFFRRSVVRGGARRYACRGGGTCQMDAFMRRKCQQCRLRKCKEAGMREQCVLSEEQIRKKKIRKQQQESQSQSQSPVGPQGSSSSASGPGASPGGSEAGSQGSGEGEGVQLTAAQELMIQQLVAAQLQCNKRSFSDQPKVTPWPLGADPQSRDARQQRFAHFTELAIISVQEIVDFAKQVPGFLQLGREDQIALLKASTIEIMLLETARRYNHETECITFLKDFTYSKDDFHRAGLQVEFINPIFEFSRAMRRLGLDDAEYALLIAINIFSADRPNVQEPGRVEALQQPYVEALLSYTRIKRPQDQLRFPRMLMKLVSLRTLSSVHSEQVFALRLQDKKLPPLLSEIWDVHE
Assay: Transactivation of human GAL4-fused LXRbeta expressed in African green monkey CV1 cells
Format: cell-based
Conditions: not given

| EC50 [µM] | SMILES |
| --- | --- |
| > 7.5 | O=C(O)[C@H]1[C@@H]2C[C@@H](C(=O)N3CC[C@](c4ccc(C(F)(C(F)(F)F)C(F)(F)F)cc4)(S(=O)(=O)c4ccc(F)cc4)C3)C[C@@H]21 |
| > 7.5 | C[C@]1(C(=O)O)CC[C@H](C(=O)N2CC[C@](c3ccc(C(F)(C(F)(F)F)C(F)(F)F)cc3)(S(=O)(=O)c3ccc(F)cc3)C2)CC1 |
| > 7.5 | O=C(N1CC[C@](c2ccc(C(F)(C(F)(F)F)C(F)(F)F)cc2)(S(=O)(=O)c2ccc(F)cc2)C1)C1(O)CCS(=O)(=O)CC1 |
| > 7.5 | O=C([C@H]1CC[C@H](O)CC1)N1CC[C@](c2ccc(C(F)(C(F)(F)F)C(F)(F)F)cc2)(S(=O)(=O)c2ccc(F)cc2)C1 |
